According to patent US6203835A, “Use of hydroxy acid or a product containing the same in animal feed” (Oy Extracta Ltd., priority 1995, dated 2001):
Structures can show the parent of a compound that is named as a salt.

Key:
[1] = in vivo; conditions: mouse
Text: (§1) The acting mechanism of alpha-hydroxy acids on microbes is unclear. It is plausible that these acids act as antimetabolites of the corresponding alpha-amino acids. […] After their resorption into the organism, these acids are metabolized through the same paths as the corresponding alpha-amino acids.

[2] = test system: micro-organisms; experiment: Antimicrobial effect of hydroxy acids on micro-organisms in vitro
[3] = physchem; conditions: for pH of maximum buffer capacity: mixture of the acid and a salt of said acid with a strong base
Text: as §1

[4] = test system: leucine amino peptidase; conditions: cited from earlier work
[5] = test system: coliform bacterium strain (104); experiment: Effect of hydroxy acids on growth of coliform strain in vitro (turbidity 600 nm); assay type: cell-based; conditions: MRS medium, 37° C.; 0.03, 0.1 and 0.3% tested
Protocol: (§2) In the example, the sensitivity of microbes isolated from the small intestine of broiler chickens to hydroxy acids were measured under laboratory conditions. For the test, a representative test organism species from each of the bacterium groups mentioned above was chosen. Of the hydroxy acids, HMB (2-hydroxy-3-methyl butric acid) and HMV (2-hydroxy-4-methyl valeric acid) were separately tested using their a mixture of their L- and D-forms as well as the pure L-form. The acids were added to the MRS growth medium of the bacterium so that resulting concentrations were controlled to 0.03, 0.1 and 0.3%. The organism growth was followed at 37° C. by measuring the turbidity of the culture at 600 nm wavelength.

[6] = test system: Salmonella infantis; experiment: Effect of hydroxy acids on growth of Salmonella infantis in vitro (turbidity 600 nm); assay type: cell-based; conditions: MRS medium, 37° C., 20 hours; 0.03, 0.1 and 0.3% tested
Protocol: In this example, an investigation was carried out into the sensitivity of Salmonella infantis bacterium representing the genus Salmonella to two hydroxy acids: L-2-hydroxy-3-methyl butyric acid (HMB) and L-2-hydroxy-4-methyl valeric acid (HMV). The acids were added to the MRS growth medium of the bacterium so that resulting concentrations were controlled to 0.03, 0.1 and 0.3%. The organism growth was followed at 37° C. for 20 hours by measuring the turbidity of the culture at 600 nm wavelength.

[7] = test system: Enterococcus strain (111); experiment: Effect of hydroxy acids on growth of Enterococcus strain in vitro (turbidity 600 nm); assay type: cell-based; conditions: MRS medium, 37° C.; 0.03, 0.1 and 0.3% tested
Protocol: as §2

Work on `CC(C)C(O)C(=O)O` (racemic) [Na-salt of d,l-2-hydroxy-3-methyl] yielded an LD50 ([1]; iv) of 1080 mg/kg.
With `CC(C)CC(O)C(=O)O` (racemic) [Na-salt of d,l-2-hydroxy-4-methyl] the LD50 ([1]; in vivo) was 650 mg/kg.
For `CC(C)C(O)C(=O)O` (racemic) [d,l-2-hydroxy-3-methyl butyric acid], the “number of different micro-organisms on which an antimicrobial effect was shown” value [2] was “about seventy”, the pKa [3] was 3.8 and the “pH of maximum buffer capacity” value [3] was 3.8 pH.
For `CC(C)CC(O)C(=O)O` (racemic) [d,l-2-hydroxy-4-methyl valeric acid], the “number of different micro-organisms on which an antimicrobial effect was shown” value [2] was “about seventy”, the pKa [3] was 3.8 and the “pH of maximum buffer capacity” value [3] was 3.8 pH.
In the case of `CC(C)CC(O)C(=O)O` (stereo not drawn) [2-hydroxy-4-methyl valeric acid], the “inhibition of leucine amino peptidase” value [4] is given as “competitive inhibitor”.
For `CC(C)[C@H](O)C(=O)O` [HMB, L-2-hydroxy-3-methyl butyric acid], the “hydroxy acid concentration effectively inhibiting growth” value [5] was 0.1%, the “hydroxy acid concentration clearly inhibiting growth” value [6] was 0.1% and the growth-inhibiting effect [7] was “clear growth-inhibiting effect”.
In the case of `CC(C)C[C@H](O)C(=O)O` [HMV, L-2-hydroxy-4-methyl valeric acid], the “hydroxy acid concentration effectively inhibiting growth” value [5] is reported as 0.1%, the “hydroxy acid concentration clearly inhibiting growth” value [6] is reported as 0.1% and the growth-inhibiting effect [7] is reported as “clear growth-inhibiting effect”.
